System: IL-6 production in human foreskin fibroblast cells
Assay: Inhibition of IL-6 production in fibroblasts (cell assay for transrepression)
Format: cell-based
Settings: IL-1 stimulated human foreskin fibroblasts
Method: Human foreskin fibroblast cells produce IL-6 in response to stimulation by proinflammatory cytokine IL-1.
Human foreskin fibroblast cells (ATCC Cat. No. CRL-2429) are plated on 96 well plates at 5,000 cells per well the day before use, in Iscove's Modified Dulbecco's Media (GibcoBRL Life Technologies Cat. No. 12440-053) supplemented with 10% charcoal filtered FBS (Clonetech Cat. No. SH30068) and Gentamycin (GibcoBRL Life Technologies Cat. No. 15710-064). On the next day, media in the wells is replaced with fresh media. Cells are treated with IL-1 (rhIL-1α, R&D Systems Cat. No. 200-LA) to a final concentration of 1 ng/mL, and with test compounds to final concentrations of 10^−5 M to 10^−8 M, in a total volume of 200 μL per well. Samples are done in duplicates. […] Positive control wells receive IL-1 only and represent maximum (or 100%) amount of IL-6 production. Plates are incubated at 37° C. overnight (15 to 18 hours), and supernatants are harvested at the end of incubation. IL-6 levels in the supernatants are determined by the ELISA kits for IL-6 (MedSystems Diagnostics GmbH, Vienna, Austria, Cat. No. BMS213TEN) according to manufacture's instructions. The extent of inhibition of IL-6 by test compounds is expressed in percentage relative to positive controls. IC50 values of test compounds are derived by non-linear curve fitting.

Structure (SMILES) | agonistic activity by inhibiting IL-6 production in Fibroblasts
OC(c1ccc(F)c(Cl)c1)(c1ccc2c(cnn2-c2ccccc2)c1)C(F)(F)F (stereo not shown) [1-(3-Chloro-4-fluorophenyl)-2,2,2-trifluoro-1-(1-phenyl-1H-indazol-5-yl)ethanol] | agonistic activity
OC(c1ccc(F)c(Cl)c1)(c1ccc2c(cnn2-c2ccc(F)cc2)c1)C(F)(F)F (stereo not shown) [1-(3-Chloro-4-fluorophenyl)-2,2,2-trifluoro-1-[1-(4-fluorophenyl)-1H-indazol-5-yl]ethanol] | agonistic activity
OC(c1ccc2c(cnn2-c2ccccc2)c1)(c1csc2ccccc12)C(F)(F)F (stereo not shown) [1-Benzo[b]thiophen-3-yl-2,2,2-trifluoro-1-(1-phenyl-1H-indazol-5-yl)ethanol] | agonistic activity
OC(c1ccc2c(cnn2-c2ccc(F)cc2)c1)(c1csc2ccccc12)C(F)(F)F (stereo not shown) [1-Benzo[b]thiophen-3-yl-2,2,2-trifluoro-1-[1-(4-fluorophenyl)-1H-indazol-5-yl]ethanol] | agonistic activity
OC(c1ccc2c(cnn2-c2ccccc2)c1)(c1ccnc2ccccc12)C(F)(F)F (stereo not shown) [2,2,2-Trifluoro-1-(1-phenyl-1H-indazol-5-yl)-1-quinolin-4-ylethanol] | agonistic activity
OC(c1ccc2c(cnn2-c2ccccc2)c1)(c1ccc(F)c2ccccc12)C(F)(F)F (stereo not shown) [2,2,2-Trifluoro-1-(4-fluoronaphthalen-1-yl)-1-(1-phenyl-1H-indazol-5-yl)ethanol] | agonistic activity
OC(c1ccc2c(cnn2-c2ccc(F)cc2)c1)(c1ccc(F)c2ccccc12)C(F)(F)F (stereo not shown) [2,2,2-Trifluoro-1-(4-fluoronaphthalen-1-yl)-1-[1-(4-fluorophenyl)-1H-indazol-5-yl]ethanol] | agonistic activity
Cc1ccc(C(O)(c2ccc3c(cnn3-c3ccc(F)cc3)c2)C(F)(F)F)c2ccccc12 (stereo not shown) [2,2,2-Trifluoro-1-[1-(4-fluorophenyl)-1H-indazol-5-yl]-1-(4-methylnaphthalen-1-yl)ethanol] | agonistic activity
OC(c1ccc2c(cnn2-c2ccc(F)cc2)c1)(c1cccc2ccccc12)C(F)(F)F (stereo not shown) [2,2,2-Trifluoro-1-[1-(4-fluorophenyl)-1H-indazol-5-yl]-1-naphthalen-1-ylethanol] | agonistic activity
OC(c1ccc2c(cnn2-c2ccccc2)c1)(c1cccc2ccccc12)C(F)(F)F (stereo not shown) [2,2,2-Trifluoro-1-naphthalen-1-yl-1-(1-phenyl-1H-indazol-5-yl)ethanol] | agonistic activity
